# Data: ChEMBL document CHEMBL1155147, “Interdomain loop mutation Asp190Cys of the tetracycline efflux transporter TetA(B) decreases affinity for substrate” (2007)
# Experiments:
# Escherichia coli [1] = experiment: Antibacterial activity against intact Escherichia coli DH5alpha; type: functional
# Escherichia coli [2] = experiment: Antibacterial activity against intact Escherichia coli DH5alpha expressing tetracycline efflux transporter TetA(B) Asp190Cys mutant gene; type: functional
# Escherichia coli [3] = experiment: Antibacterial activity against intact Escherichia coli DH5alpha expressing wild-type tetracycline efflux transporter TetA(B) gene; type: functional
# [4] = substrate: CN(C)[C@@H]1C(O)=C(C(N)=O)C(=O)[C@@]2(O)C(O)=C3C(=O)c4c(O)cccc4[C@@](C)(O)[C@H]3C[C@@H]12; experiment: Activity of tetracycline efflux transporter TetA(B) in Escherichia coli DH5alpha membrane vesicles assessed as [3H]tetracycline uptake per mg of protein; type: cell membranes
# [5] = substrate: CN(C)[C@@H]1C(O)=C(C(N)=O)C(=O)[C@@]2(O)C(O)=C3C(=O)c4c(O)cccc4[C@@](C)(O)[C@H]3C[C@@H]12; experiment: Activity of tetracycline efflux transporter TetA(B) in Escherichia coli DH5alpha membrane vesicles assessed as [3H]tetracycline uptake; type: cell membranes
# [6] = substrate: CN(C)[C@@H]1C(O)=C(C(N)=O)C(=O)[C@@]2(O)C(O)=C3C(=O)c4c(O)cccc4[C@@](C)(O)[C@H]3C[C@@H]12; experiment: Activity of tetracycline efflux transporter TetA(B) Asp190Cys mutant in Escherichia coli DH5alpha membrane vesicles assessed as [3H]tetracycline uptake per mg of protein; type: cell membranes
# [7] = substrate: CN(C)[C@@H]1C(O)=C(C(N)=O)C(=O)[C@@]2(O)C(O)=C3C(=O)c4c(O)cccc4[C@@](C)(O)[C@H]3C[C@@H]12; experiment: Activity of tetracycline efflux transporter TetA(B) Asp190Cys mutant in Escherichia coli DH5alpha membrane vesicles assessed as [3H]tetracycline uptake; type: cell membranes
Molecule,MIC (Escherichia coli [1]) [µg/mL],MIC (Escherichia coli [2]) [µg/mL],MIC (Escherichia coli [3]) [µg/mL],Vmax [4] [pmol/min],Km [5] [µM],Vmax [6] [pmol/min],Km [7] [µM]
C[C@H]1c2cccc(O)c2C(=O)C2=C(O)[C@]3(O)C(=O)C(C(N)=O)=C(O)[C@@H](N(C)C)[C@@H]3[C@@H](O)[C@@H]21.O [DOXYCYCLINE],1.25,14,32,–,–,–,–
CN(C)[C@@H]1C(O)=C(C(N)=O)C(=O)[C@@]2(O)C(O)=C3C(=O)c4c(O)cccc4[C@@](C)(O)[C@H]3C[C@@H]12 [TETRACYCLINE],0.75,11,128,–,–,–,–
"Tetracycline resistance protein, class B (Escherichia coli), P02980 (protein) MNSSTKIALVITLLDAMGIGLIMPVLPTLLREFIASEDIANHFGVLLALYALMQVIFAPWLGKMSDRFGRRPVLLLSLIGASLDYLLLAFSSALWMLYLGRLLSGITGATGAVAASVIADTTSASQRVKWFGWLGASFGLGLIAGPIIGGFAGEISPHSPFFIAALLNIVTFLVVMFWFRETKNTRDNTDTEVGVETQSNSVYITLFKTMPILLIIYFSAQLIGQIPATVWVLFTENRFGWNSMMVGFSLAGLGLLHSVFQAFVAGRIATKWGEKTAVLLGFIADSSAFAFLAFISEGWLVFPVLILLAGGGIALPALQGVMSIQTKSHQQGALQGLLVSLTNATGVIGPLLFAVIYNHSLPIWDGWIWIIGLAFYCIIILLSMTFMLTPQAQGSKQETSA",–,–,–,1270,22,–,–
"Tetracycline resistance protein, class B (Escherichia coli), P02980 D190C (protein) MNSSTKIALVITLLDAMGIGLIMPVLPTLLREFIASEDIANHFGVLLALYALMQVIFAPWLGKMSDRFGRRPVLLLSLIGASLDYLLLAFSSALWMLYLGRLLSGITGATGAVAASVIADTTSASQRVKWFGWLGASFGLGLIAGPIIGGFAGEISPHSPFFIAALLNIVTFLVVMFWFRETKNTRDNTCTEVGVETQSNSVYITLFKTMPILLIIYFSAQLIGQIPATVWVLFTENRFGWNSMMVGFSLAGLGLLHSVFQAFVAGRIATKWGEKTAVLLGFIADSSAFAFLAFISEGWLVFPVLILLAGGGIALPALQGVMSIQTKSHQQGALQGLLVSLTNATGVIGPLLFAVIYNHSLPIWDGWIWIIGLAFYCIIILLSMTFMLTPQAQGSKQETSA",–,–,–,–,–,1330,83
